Data: the supplement of paper PMC6470124

Columns and labels:
[1] = absolute recovery over vacuum-assisted evaporative concentration; higher = better recovery; settings: enrichment method: VEC
Outline: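 After spiking with standards before concentration, after concentration or not at all, at 1000 ng/L for wastewater or 200 ng/L for nanopure and surface water with class- and compound-specific adjustments, samples of 6 mL influent, 15 mL effluent and 60 mL surface or nanopure water were evaporated at 55 °C and 20 mbar to about 0.3 mL. They were brought to 0.4 mL, centrifuged, given internal standards and analysed by LC-HRMS/MS. Absolute recovery, (response ratio pre − unspiked)/(post − unspiked) × 100, used averages of ≥ 2 replicates.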

[2] = LC retention time (Atlantis T3, 5-95% MeOH gradient, 0.1% formic acid); higher = more retained / less polar
Outline: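 Retention times refer to reference standards measured by liquid chromatography with high-resolution tandem mass spectrometry. Separation was on an Atlantis T3 C18 column (3 × 150 mm, 3 μm) at 0.3 mL/min with a 5 to 95% methanol gradient over 17.5 min, both solvents carrying 0.1% formic acid. Positive and negative electrospray were run separately on a QExactive Plus, and TraceFinder peak integration (5 ppm tolerance, at least three points per peak) was reviewed by hand.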

[3] = absolute recovery over mixed-bed multilayer solid-phase extraction; higher = better recovery; settings: enrichment method: SPE
Outline: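 A three-layer mixed-bed cartridge was loaded with 100–250 mL of wastewater (adjusted to pH 6.5, glass-fibre filtered) or 1000 mL of unfiltered nanopure water, then eluted with basic and subsequently acidic ethyl acetate/methanol. Standards were introduced pre-extraction, post-extraction, or not at all, at 200 ng/L for water and 1000 ng/L for wastewater, except for certain classes. Once internal standards had been added, both ionisation modes were run by liquid chromatography with high-resolution tandem mass spectrometry. Absolute recovery was derived from background-corrected response ratios of pre- against post-spiked samples, averaged over at least two replicates.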

Structure (SMILES) | absolute recovery ([1]; wastewater effluent) | absolute recovery ([1]; wastewater influent) | LC retention time [2] | absolute recovery ([3]; nanopure water) | absolute recovery ([3]; surface water) | absolute recovery ([3]; wastewater effluent) | absolute recovery ([3]; wastewater influent)
COc1c(Cl)ccc(Cl)c1C(=O)[O-] [Dicamba] | 104% | 106% | 19.3 min | 95.6% | 94% | 93.5% | 91.2%
CC(C)[NH2+]CC(O)COc1cccc2ccccc12 (configuration not stated) [Propranolol] | 105% | 100% | 14.4 min | 100% | 96.8% | 93.7% | 86.3%
CC(=O)SC1CC2=CC(=O)CCC2(C)C2CCC3(C)C(CCC34CCC(=O)O4)C12 (configuration not stated) [Spironolacton] | 93.7% | 91.9% | 19.3 min | 80.9% | 79.1% | 87.9% | 92%
CCOC(=O)C1(c2ccccc2)CC[NH+](C)CC1 [Meperidine] | 99.2% | 103% | 12.8 min | 88.6% | 87.8% | 86.8% | 96.6%
O=C1NC(=O)C(c2ccccc2)(c2ccccc2)N1 [Phenytoin] | 98.4% | 112% | 17 min | 90.8% | – | – | –
NC1=C(Cl)C(=O)c2ccccc2C1=O [Quinoclamine] | 97% | 106% | 16.8 min | 93.9% | 96.8% | 92.6% | 88%
CC(C)(Oc1ccc(CCNC(=O)c2ccc(Cl)cc2)cc1)C(=O)[O-] [Bezafibrat] | 104% | 103% | 19.5 min | 98% | 98.8% | 92.9% | 94%
CC(C)(C)Nc1nc(N)nc(O)n1 [Terbutylazin-desethyl-2-hydroxy] | 113% | 85.2% | 9.56 min | 89.9% | 102% | 96.7% | 94.1%
COc1cc([N-]S(=O)(=O)c2ccc(N)cc2)nc(OC)n1 [Sulfadimethoxin] | 104% | 98.4% | 14.9 min | 95.1% | 92% | 90.3% | 90%
CC(C)(Oc1ccc(Cl)cc1)C(=O)[O-] [Clofibric-acid] | 105% | 103% | 19.3 min | 96.4% | 94.1% | 93.9% | 92.9%
c1ccc2[nH]nnc2c1 [Benzotriazol] | 104% | 102% | 13.4 min | 99.4% | – | – | 95.1%
O=C([O-])C(c1ccccc1)C1CCCC[NH2+]1 (configuration not stated) [Ritalinic-acid] | 110% | 104% | 12.3 min | 104% | 77.4% | 88.9% | 79.8%
CC(Cn1cnc2c(N)ncnc21)OCP(=O)([O-])O (configuration not stated) [Tenofovir] | 105% | 114% | 7.16 min | 70% | – | 1.9% | –
CON(C)C(=O)Nc1ccc(Cl)c(Cl)c1 [Linuron] | 101% | 99.8% | 19.5 min | 96.5% | 98.3% | 92.4% | 93.3%
COC=C(C(=O)OC)c1ccccc1Oc1cc(Oc2ccccc2C#N)ncn1 [Azoxystrobin] | 102% | 99.4% | 18.9 min | 96.9% | 96% | 92.8% | 93.6%
CCCc1nc2c(C)cc(-c3nc4ccccc4n3C)cc2n1Cc1ccc(-c2ccccc2C(=O)[O-])cc1 [Telmisartan] | 86.1% | 82.1% | 17.1 min | 108% | 82.5% | 88.5% | 126%
CCn1cc(C(=O)[O-])c(=O)c2cc(F)c(N3CC[NH2+]CC3)cc21 [Norfloxacin] | 104% | – | 11.5 min | 75.9% | 68.2% | 74% | 74.9%
C=CC1=C(C(=O)[O-])N2C(=O)C([NH3+])C2SC1 (configuration not stated) [7-Amino-3-vinyl-3-cephem-4-carboxylic-acid] | 95.6% | 96.5% | 6.11 min | 47.7% | – | – | 37.9%
Cc1cccc(C)c1N(Cn1cccn1)C(=O)CS(=O)(=O)[O-] [Metazachlor-ESA] | 102% | 104% | 17.5 min | 98.7% | 95.6% | 96.8% | 97.6%
CC(=O)N1CCN(c2ccc(OCC3COC(Cn4cc[nH+]c4)(c4ccc(Cl)cc4Cl)O3)cc2)CC1 (configuration not stated) [Ketoconazol] | 71.5% | – | 16 min | 80.2% | 62.2% | 66.4% | 85.8%
Cc1cccc(Nc2ccccc2C(=O)[O-])c1C [Mefenamic-acid] | 102% | 97.7% | 21.9 min | 101% | 95.7% | 93.3% | –
Cc1nc2n(c(=O)c1CC[NH+]1CCC(c3noc4cc(F)ccc34)CC1)CCCC2 [Risperidone] | 98.7% | 102% | 13.3 min | 90.1% | 98.4% | 93.3% | 82%
CCCOC(=O)NCCC[NH+](C)C [Propamocarb] | 105% | 105% | 8.99 min | 83% | 83.9% | 84.1% | 86.5%
COC(=O)c1ccccc1S(=O)(=O)[N-]C(=O)Nc1nc(C)nc(OC)n1 [Metsulfuron-methyl] | 102% | 105% | 17 min | 98.1% | 95.2% | 95.9% | –
O=C(OC1CC2CCC(C1)[N+]21CCCC1)C(O)(c1ccccc1)c1ccccc1 (configuration not stated) [Trospium] | 99.2% | 103% | 13.7 min | 85.5% | 91.7% | 91.1% | 87.3%
C[NH+](C)CCOC(C)(c1ccccc1)c1ccccn1 (configuration not stated) [Doxylamine] | 120% | 109% | 10.8 min | 84.3% | 91.3% | 94.8% | 85%

Structure (SMILES) | absolute recovery ([1]; wastewater effluent) | absolute recovery ([1]; wastewater influent) | LC retention time [2] | absolute recovery ([3]; nanopure water) | absolute recovery ([3]; surface water) | absolute recovery ([3]; wastewater effluent) | absolute recovery ([3]; wastewater influent)
C[NH2+]C(CC(C)C)C(=O)NC1C(=O)NC(CC(N)=O)C(=O)NC2C(=O)NC3C(=O)NC(C(=O)NC(C(=O)[O-])c4cc(O)cc(O)c4-c4cc3ccc4O)C(O)c3ccc(c(Cl)c3)Oc3cc2cc(c3OC2OC(CO)C(O)C(O)C2OC2CC(C)([NH3+])C(O)C(C)O2)Oc2ccc(cc2Cl)C1O (configuration not stated) [Vancomycin] | 108% | 109% | 9.01 min | 108% | 90.4% | 82% | 92.8%
COP(=O)(OC)OC=C(Cl)Cl [Dichlorvos] | 34.5% | 39.6% | 16.8 min | 63.4% | 47.3% | 60% | 87.4%
CC12CCC3=C4CCC(=O)C=C4CCC3C1CCC2(O)CC#N (configuration not stated) [Dienogest] | 97.4% | 92.2% | 18.1 min | 97.4% | 81.6% | 79% | 87%
COC(=O)[N-]S(=O)(=O)c1ccc(N)cc1 [Asulam] | 95.8% | 88.4% | 10.5 min | 101% | 34.2% | 42.6% | 43.9%
O=P1(NCCCl)OCCCN1CCCl (configuration not stated) [Ifosfamid] | 102% | 99.2% | 15.5 min | 109% | 99.4% | 92.9% | 89.1%
CCCCCCCCCC[N+](C)(C)[O-] [NN-Dimethyldicylamin-N-oxid] | 103% | 110% | 16.9 min | 85.4% | 110% | 93.4% | 58.3%
COC(=O)C(Cc1ccccc1)NC(=O)C([NH3+])CC(=O)[O-] (configuration not stated) [Aspartam] | 48% | 36.3% | 12.6 min | 50% | 41.1% | 53.3% | 58.7%
CC1(C(=O)[O-])CCC2(C)CCC3(C)C(=CC(=O)C4C5(C)CCC(O)C(C)(C)C5CCC43C)C2C1 (stereo not drawn) [18-beta-Glycyrrhetinic-acid] | 88.9% | 27.7% | 24.5 min | 90.6% | 103% | 84.8% | 90.8%
c1ccc2[nH]c(-c3cscn3)nc2c1 [Thiabendazol] | 102% | 105% | 11.7 min | 79.2% | 77.5% | 81.8% | 92.3%
CNC(=O)Nc1ccc(Cl)c(Cl)c1 [Diuron-desmonomethyl (=DCPMU)] | 105% | 106% | 18.6 min | 99.4% | 112% | 102% | 86.1%
Cc1cc(O)nc(C(C)C)n1 [Pyrimidinol] | 108% | 108% | 11.8 min | 76.8% | 81.4% | 85.3% | 96.4%
O=C([O-])C=C(F)C(F)(F)C(F)(F)C(F)(F)C(F)(F)C(F)(F)F [6-2-FTUCA] | 143% | 97.7% | 23.2 min | 69.6% | 89.6% | 97.8% | 77.9%
O=C(NCCc1ncc(C(F)(F)F)cc1Cl)c1ccccc1C(F)(F)F [Fluopyram] | 105% | 54.9% | 19.9 min | 101% | 93.4% | 93% | 102%
C[NH2+]C1(c2ccccc2Cl)CCCCC1=O (configuration not stated) [Ketamin] | 101% | 105% | 11.7 min | 83.7% | 82.3% | 82.9% | 90.4%
O=C1Nc2ccc(Cl)cc2C(c2ccccc2)=NC1O (configuration not stated) [Oxazepam] | 104% | 98.7% | 18.4 min | 99.5% | 98.7% | 91.9% | 93.9%
CNC(=C[N+](=O)[O-])NCCSCc1ccc(C[N+](C)(C)[O-])o1 [Ranitidin-N-oxid] | 103% | 92.2% | 8.99 min | 50.9% | 69.4% | 63.7% | 73.7%
O=C(Cc1ccccc1)NC(=NOCC1CC1)c1c(C(F)(F)F)ccc(F)c1F [Cyflufenamid] | 95.4% | 117% | 20.9 min | 91.9% | 106% | 106% | 84.3%
C[NH2+]CCCC(C#N)(c1ccc(OC)c(OC)c1)C(C)C (configuration not stated) [D617] | 101% | 100% | 14 min | 89.5% | 84.5% | 86.9% | 81.5%
CN(C)C(=O)Nc1ccc(-n2nc(C(C)(C)C)oc2=O)c(Cl)c1 [Dimefuron] | 108% | 103% | 18.9 min | 103% | 98.3% | 100% | 92%
Nc1cnn(-c2ccccc2)c(=O)c1Cl [Chloridazon] | 104% | 104% | 14.7 min | 97.1% | 98.1% | – | 96.1%
CCCCOc1ccc(OCCC[NH+]2CCOCC2)cc1 [Pramoxine] | 105% | 91% | 15.1 min | 87.7% | 95.3% | 89.4% | 84%
CC1(C)C(=O)Oc2ccc(OS(C)(=O)=O)cc21 [Ethofumesat-2-keto] | 101% | 82.2% | 15.2 min | 69.5% | 50.8% | 76.7% | 88.3%
CC(=O)Nc1ccc(S(=O)(=O)[N-]c2nccs2)cc1 [N4-Acetyl-Sulfathiazol] | 105% | 101% | 12.2 min | 98.7% | 96.1% | 94% | 90%
NS(=O)(=O)c1cc(C(=O)[O-])c(NCc2ccco2)cc1Cl [Furosemid] | 101% | 97.9% | 16.2 min | 77.3% | – | 78.8% | 87.3%
O=P1(N(CCCl)CCCl)NCCCO1 (configuration not stated) [Cyclophosphamid] | 104% | 100% | 16.1 min | 98.1% | 96.4% | 93.9% | 94.5%
